Test results as given in patent US20240052421A1, “METHOD OF IDENTIFYING AND TREATING MITOCHONDRIAL SUBTYPE TUMORS” (The Trustees of Columbia University in the City of New York, priority 2020, published 2024).

Tests used:
Format in all cases: cell-based, human
mitochondrial PDOs = test: Viability of mitochondrial GBM patient-derived organoids (PDOs), serial dilution of mitochondrial inhibitors
Procedure: (§1) The objective of the study is to test the activity of IM-156, a novel mitochondrial inhibitor currently in clinical testing, in vitro in 25 GBM-PDO organoids previously classified molecularly as mitochondrial (MTC, 13 organoids) or glycolytic/plurimetabolic (GPM, 12 organoids) plus 2 GBM-PDO harboring a FGFR3-TACC3 (F3T3) fusion.
(§2) Using IM-156 (0 μM -15 μM, 1/3 dilution, 7 points and 0-45 μM, 1/3 dilution, 10 points), […], and 2 FGFR3-TACC3 positive GBM PDOs were tested. Seventy-two hours later viability was assessed and the half-maximal inhibitory concentration was calculated. The activity (IC50) of IM-156 was compared with IACS-010759, Metformin, Tigecycline, and Menadione, 4 inhibitors of mitochondrial activity/respiration. […] FGFR3-TACC3 fusion expressing cells had been previously characterized as mitochondrial GBM.

[1] = system: glycolytic/plurimetabolic PDOs; test: Viability of glycolytic/plurimetabolic GBM PDOs, serial dilution of mitochondrial inhibitors
Procedure: as §1, §2

FGFR3-TACC3 PDOs = test: Viability of FGFR3-TACC3 positive GBM PDOs, serial dilution of mitochondrial inhibitors
Procedure: as §1, §2

MTC PDCs = test: Viability of MTC patient-derived cells (PDCs) after compound treatment, CellTiterGlo; details: 13 MTC PDCs, 72 h treatment, serial dilutions
Text: (§3) FIGS. 9A-K show MTC PDCs are distinctly sensitive to mitochondrial inhibition. […] Data are mean±s.d. of n≥3 replicates for each PDC from one representative experiment. […] Middle: correlation analysis of MTC (blue) and GPM (red) activity in PDCs (n=25 MTC PDCs and n=21 GPM PDCs; Spearman's correlation, p=−0.51, P=0.0003). Bottom: enrichment of fCNV gain and loss of mitochondrial and glycolytic-related genes in MTC PDCs (n=25) and GPM PDCs (n=21). The number of genes amplified/deleted in each tumor is color coded (amplifications, red to white; deletions, blue to white). FIGS. 9F and G show viability curves of nine MTC PDCs and nine GPM PDCs each derived from an independent patient treated with either FX-11 (F) or DEAB (G). Data are mean±s.d. from n≥4 replicates for each PDC from one representative experiment. […] Representative MRs with differential activity (n=304 tumors, n=2,799 cells from dataset 1, n=9,652 cells from dataset 2 and n=4,916 cells from dataset 3; two-sided MWW test, FDR<0.01) in TCGA and at least two out of three single-cell datasets are shown (two-sided MWW-GST test, log it(NES)>0.58, FDR<0.01). Nodes represent MRs and target genes, while lines represent interactions. […] Data are mean±s.d. from one representative experiment including n=3 independent infections for each PDC; **P=0.0010 and 0.0013 for PDC-002 shRNA1 and shRNA2 versus vector, respectively; **P=0.0030 and 0.0023 for PDC-026 shRNA1 and shRNA2 versus vector, respectively; *P=0.0285 for PDC-078 shRNA1 versus vector; *P=0.0142 for PDC-021 shRNA1 versus vector. […] Data are mean±s.d. of one representative experiment assessed by n=30 replicates for each PDC; **P=0.0022. […] Data are mean±s.d. of n=3 independent experiments for each PDC, each performed in triplicate. Bars on the right-hand side of the graph indicate mean±s.e.m. of values observed in the two sets of PDCs; n=7 MTC PDCs and n=7 GPM PDCs, each derived from an independent patient; ***P=0.00006. Experiments in A-D, F, G, I and J were repeated two times with similar results. In all experiments, significance was evaluated by two-tailed t-test, unequal variance.
(§4) Therefore, we tested the sensitivity of 13 MTC and ten GPM PDCs to compounds that interfere with OXPHOS and mitochondrial metabolism. […] Conversely, GPM PDCs were resistant to all four compounds (FIG. 9A-D). […] Furthermore, the complementary fCN gains and losses of MTC and GPM gene sets robustly correlated with mitochondrial inhibitor sensitivity score (FIG. 9E). Treatment of GBM PDCs with inhibitors of glycolysis (DEAB and FX-11)^51 had no effect regardless of the metabolic class of PDC (FIGS. 9F,G).
(§5) Compound treatment of PDCs. […] Viability was determined using CellTiterGlo assay reagent (Promega, no. G7570) and the GloMax-Multi+Microplate Multimode Reader (Promega).

GPM PDCs = test: Viability of GPM patient-derived cells (PDCs) after compound treatment, CellTiterGlo; details: ten GPM PDCs, 72 h treatment, serial dilutions
Text: as §3, §4, §5

GBM PDCs = test: Viability of GBM PDCs (MTC and GPM) treated with inhibitors of glycolysis; details: nine MTC and nine GPM PDCs, 72 h treatment
Text: FIGS. 9A-K show MTC PDCs are distinctly sensitive to mitochondrial inhibition. […] Data are mean±s.d. of n≥3 replicates for each PDC from one representative experiment. […] Middle: correlation analysis of MTC (blue) and GPM (red) activity in PDCs (n=25 MTC PDCs and n=21 GPM PDCs; Spearman's correlation, p=−0.51, P=0.0003). Bottom: enrichment of fCNV gain and loss of mitochondrial and glycolytic-related genes in MTC PDCs (n=25) and GPM PDCs (n=21). The number of genes amplified/deleted in each tumor is color coded (amplifications, red to white; deletions, blue to white). FIGS. 9F and G show viability curves of nine MTC PDCs and nine GPM PDCs each derived from an independent patient treated with either FX-11 (F) or DEAB (G). Data are mean±s.d. from n≥4 replicates for each PDC from one representative experiment. […] Data are mean±s.d. of one representative experiment assessed by n=30 replicates for each PDC; **P=0.0022. […] In all experiments, significance was evaluated by two-tailed t-test, unequal variance. […]
as §5

[2] = 15 μM as highest concentration, 72 h

## NC(=Nc1ccc(OC(F)(F)F)cc1)N=C(N)N1CCCC1 [IM-156]
Mitochondrial PDOs; [2]
  number of mitochondrial PDOs in which the drug was effective: 12 out of 14
Mitochondrial PDOs; MTC versus GPM patient-derived tumor models
  effectiveness in MTC models as opposed to GPM subtype: significantly more effective
Mitochondrial PDOs; mitochondrial PDOs, 15 μM as highest concentration, viability at 72 h, read-out: Median IC50
  IC50: 6.38 µM
[1]; [2]
  number of glycolytic/plurimetabolic PDOs in which the drug was effective: 2 out of 10
[1]; maximum concentration raised from 15 μM to 45 μM
  change in sensitivity of glycolytic/plurimetabolic GBM PDOs on increasing maximum concentration: significant increase in sensitivity
FGFR3-TACC3 PDOs; [2]
  number of FGFR3-TACC3 PDOs in which the drug was effective: 2 out of 2
FGFR3-TACC3 PDOs; 2 FGFR3-TACC3 positive GBM PDOs
  sensitivity of FGFR3-TACC3 fusion expressing cells: distinct sensitivity

## Cc1nc(-c2nc(-c3ccc(OC(F)(F)F)cc3)no2)nn1Cc1cccc(N2CCC(S(C)(=O)=O)CC2)c1 [IACS-010759]
MTC PDCs
  effect on viability of MTC PDCs: reduced the viability
GPM PDCs
  effect on viability of GPM PDCs: resistant

## CN(C)C(=N)N=C(N)N [metformin]
MTC PDCs
  effect on viability of MTC PDCs: reduced the viability
GPM PDCs
  effect on viability of GPM PDCs: resistant

## CC1=CC(=O)c2ccccc2C1=O [menadione]
MTC PDCs
  effect on viability of MTC PDCs: reduced the viability
GPM PDCs
  effect on viability of GPM PDCs: resistant

## CCN(CC)c1ccc(C=O)cc1 [DEAB]
GBM PDCs
  effect on viability of GBM PDCs regardless of metabolic class: no effect

## CN(C)c1cc(NC(=O)CNC(C)(C)C)c(O)c2c1C[C@H]1C[C@H]3[C@H](N(C)C)C(O)=C(C(N)=O)C(=O)[C@@]3(O)C(O)=C1C2=O [tigecycline]
MTC PDCs
  effect on viability of MTC PDCs: reduced the viability
GPM PDCs
  effect on viability of GPM PDCs: resistant

## CCCc1c(O)c(O)c(C(=O)O)c2cc(Cc3ccccc3)c(C)cc12 [FX-11]
GBM PDCs
  effect on viability of GBM PDCs regardless of metabolic class: no effect
